Read-outs that look alike come from different tables or passages of the source.
Key:
U2OS-DRGFP cells = experiment: DR-GFP reporter gene conversion assay for homologous recombination repair; type: cell-based; conditions: 24 h exposure; inhibition in the 0 to 5 μM range; FIG. 8A
Description: FIG. 8 is a composite figure showing that C527 inhibits homologous recombination repair. […] U2OS-DRGFP cells were transfected with I-SCE-I and then exposed to C527 at the indicated concentration for 24 h. Cells were then subjected to flow cytometry analysis. The percentage of GFP positive cells was normalized by solvent vehicle treated group. […] HeLa cells, integrated with the NHEJ reporter, were treated with C527 and analyzed as described in (FIG. 8A). […] HeLa cells were pre-treated with DMSO or C527 at the indicated concentration and then exposed to camptothecin (CPT) for 1 hr. RAD51 foci were detected using immunofluorescence.
HR repair activity was analyzed using DR-GFP reporter as previously described (Pierce A J et al, Genes Dev, 13: 2633). U2OS-DRGFP cells carrying a chromosomally integrated single copy of HR repair substrate were used to test the effect of C527 on HR. DSB-induced HR results in restoration and expression of GFP and was quantified by FACS. Briefly, 24 h after induction of chromosomal double-strand breaks through the expression of I-SceI, cells were treated with C527 for 24 h. Cells were subjected to FACS analysis and the percentage of GFP-positive cells was quantitated relative to the total viable cell number. For each analysis, 100,000 cells were processed. […]

native USP1 = target: T1, native USP1 (Homo sapiens, UniProt O94782); experiment: HA-Ub-VS labelling of native USP1 in HeLa cell extracts; type: biochemical; conditions: HeLa cell extracts pretreated 4 h, then Ub-VS 40 min at 30° C.; FIG. 7
T1 construct: endogenous in cells; host or cells: HeLa cell extract
T1 sequence (O94782 whole entry): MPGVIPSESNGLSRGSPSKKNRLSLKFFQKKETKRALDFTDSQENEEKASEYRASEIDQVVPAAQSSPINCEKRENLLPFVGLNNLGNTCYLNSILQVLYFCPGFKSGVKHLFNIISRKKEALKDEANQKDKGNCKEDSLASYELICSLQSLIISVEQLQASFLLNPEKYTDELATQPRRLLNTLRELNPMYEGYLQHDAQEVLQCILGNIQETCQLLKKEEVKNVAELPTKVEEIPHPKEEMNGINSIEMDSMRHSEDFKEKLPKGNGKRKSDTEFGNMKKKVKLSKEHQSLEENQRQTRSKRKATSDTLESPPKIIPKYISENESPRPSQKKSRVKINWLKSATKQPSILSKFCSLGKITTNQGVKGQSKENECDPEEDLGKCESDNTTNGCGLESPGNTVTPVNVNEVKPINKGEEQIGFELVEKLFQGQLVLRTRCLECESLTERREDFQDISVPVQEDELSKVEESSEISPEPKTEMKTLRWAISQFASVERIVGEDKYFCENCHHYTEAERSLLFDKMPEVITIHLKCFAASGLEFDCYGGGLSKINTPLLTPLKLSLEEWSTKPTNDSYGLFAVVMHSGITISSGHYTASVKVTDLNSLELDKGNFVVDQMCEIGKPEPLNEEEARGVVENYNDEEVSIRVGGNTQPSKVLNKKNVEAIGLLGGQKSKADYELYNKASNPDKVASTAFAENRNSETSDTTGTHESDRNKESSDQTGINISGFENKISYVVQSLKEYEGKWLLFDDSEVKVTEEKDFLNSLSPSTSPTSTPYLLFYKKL
T1 sequence (Q8TAF3 whole entry partner): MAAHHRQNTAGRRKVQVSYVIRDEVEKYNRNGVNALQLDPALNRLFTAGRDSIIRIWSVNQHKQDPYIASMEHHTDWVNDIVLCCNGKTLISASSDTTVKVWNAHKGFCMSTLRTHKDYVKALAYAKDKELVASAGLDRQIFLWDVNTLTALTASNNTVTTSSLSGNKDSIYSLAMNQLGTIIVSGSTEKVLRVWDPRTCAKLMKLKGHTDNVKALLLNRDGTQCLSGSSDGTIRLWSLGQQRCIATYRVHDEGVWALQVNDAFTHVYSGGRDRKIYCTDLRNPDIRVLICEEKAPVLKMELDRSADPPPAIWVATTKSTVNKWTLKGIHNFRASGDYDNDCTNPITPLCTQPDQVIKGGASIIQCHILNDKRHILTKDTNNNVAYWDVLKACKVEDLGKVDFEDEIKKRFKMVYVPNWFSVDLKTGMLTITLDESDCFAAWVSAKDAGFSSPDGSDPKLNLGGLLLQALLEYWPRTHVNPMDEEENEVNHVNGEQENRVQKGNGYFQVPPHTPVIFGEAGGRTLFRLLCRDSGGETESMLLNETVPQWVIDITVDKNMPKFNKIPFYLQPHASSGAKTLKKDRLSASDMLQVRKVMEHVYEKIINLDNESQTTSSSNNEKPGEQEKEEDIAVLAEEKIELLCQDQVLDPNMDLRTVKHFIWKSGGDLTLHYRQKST
Description: FIG. 7 is a composite figure depicting preferential inhibition of the activity of native USP1/UAF1 by C527. HeLa cell extracts were incubated with ubiquitin-aldehyde (Ub-Ald, 5 μM) or C527 at indicated concentrations for 4 h, followed by the addition of 0.5 μM Ub-Vs for 40 min. The reaction was split into two aliquots and subjected to immunoblotting for HA or USP1, respectively.
The ability of C527 to inhibit the deubiquitinating activity of native USP1 complexes derived from human cells was determined next (FIG. 7). For this purpose, the HA-tagged ubiquitin-VS, an affinity reagent known to covalently modify and trap active DUB enzymes in cell extracts was used. Cell extracts prepared from HeLa cells were pretreated with increasing concentrations of C527 for 4 h, followed by the incubation with Ub-VS for 40 min at 30° C. The enzymatic activity of endogenous DUBs was indicated by the conjugation of Ub-VS, detected as HA-labeling (see FIG. 7, high molecular weight bands). […] Ub-VS conjugation was inhibited by ubiquitin-aldehyde (Ub-Ald), a non-specific inhibitor of DUBs (lane 3).

USP1/UAF1 complex = target: T2, USP1/UAF1 complex (Homo sapiens, UniProt O94782, G670A/G671A); experiment: ubiquitin-AMC in vitro deubiquitination enzyme assay; type: biochemical
T2 construct: This modified full length USP1 clone was PCR amplified and subcloned into pFastBac-HT vectors; His tag (N); made in house; host or cells: Sf9 insect cells (baculovirus)
T2 sequence (O94782 whole entry G670A/G671A): as the sequence (O94782 whole entry) above, with G670A, G671A counted along it
T2 sequence (Q8TAF3 whole entry partner): as the sequence (Q8TAF3 whole entry partner) above
Description: Purified USP1/UAF1 complex was incubated with 1 μM C527 or DMSO for indicated time, followed by the addition of Ub-AMC at 0.5 μM final concentration. The fluorescence at […] was measured to indicate the enzymatic activity of USP1. […] 5A.
The in vitro enzymatic assays were performed using purified proteins from Sf9 cells as described previously (Cohn et al.). The assays using ubiquitin-AMC (Ub-7-amido-4-methylcoumarin; Boston Biochem) as substrate was carried out in a reaction buffer containing 20 mM HEPES-KOH (pH 7.8), 20 mM NaCl, 0.1 mg/ml ovalbumin, 0.5 mM EDTA and 10 mM dithiothreitol. The fluorescence was measured by FluoStar Galaxy Fluorometer (BMG Labtech). For the Ub-vinylsulfone (VS) assay, the proteins were incubated with Ub-VS at 0.5 μM final concentration for 1 h at 30° C., followed by the immunoblotting analysis.
In order to develop a highly sensitive assay with easy readout for high throughput detection, the fluorogenic compound Ubiquitin-7-amido-4-methylcoumarin (AMC-Ub, Boston Biochem) was used as a substrate for USP1/UAF1 enzyme complex. USP1 catalyzes the cleavage of AMC-Ub, releasing free AMC moiety, which leads to increase in fluorescence emission at 460 nm (λex=380 nm). Dang et al. (1998) Biochemistry 37:1868-79. […] Initial enzyme assay development was performed in 96-well plates with 100 μl reaction volume containing 20 mM HEPES-KOH, 0.1 mg/ml ovalbumin (Sigma), 0.5 mM EDTA, and 10 mM DTT. 2.5 nM USP1/UAF1 enzyme complex was mixed with the reaction buffer, incubated at 37° C. for 10 minutes and then 0.3 μM AMC-Ub was added. Fluorescence was measured using a Fluostar Galaxy Fluorometer (BMG Labtech Inc.).
Hits from the initial screening were analyzed further in secondary screening. In this step, the compounds were re-tested for inhibition using the AMC-Ub in vitro enzyme assay. After reconfirming inhibition, different concentration range of the inhibitors were tested to show dose dependency of inhibition and IC50 calculation.

HeLa cells = experiment: clonogenic assay; type: cell-based, human; conditions: FIG. 9B
Description: FIG. 9 is a composite figure showing that C527 causes DNA damage and inhibits the proliferation of tumor cells. […] HeLa cells were treated with C527 at the indicated concentrations for 24 hrs, and cells were subjected to immunoblotting. Mitomycin C (MMC, 1 μM) was used as a positive control. […] HeLa cells were seeded in a 6-well plate and treated with C527 at the indicated concentrations. Cell proliferation was evaluated using a clonogenic assay.
Cells were seeded in 6-well plate at 500 cells per well followed by treatment with C527. Colonies were allowed to grow for 7-10 days, fixed with a solution containing 10% Methanol and 10% acetic acid at room temperature for 15 min and then stained with 1% crystal violet in methanol. Colonies of >50 cells were counted, and the surviving fraction was calculated and normalized to untreated control.
Impaired HR integrity may lead to genotoxic effect. Genotoxic agents are known to directly activate DNA damage response pathways, resulting in FANCD2 monoubiquitination and CHK1 phosphorylation (FIG. 9A).

In the case of `O=C1c2ccccc2C(=O)c2oc(-c3ccc(F)cc3)nc21` [Formula IV (527)], the “gene conversion (cellular GFP), HR activity” value (U2OS-DRGFP cells) is reported as “dose-dependent decreased in gene conversion”, the “USP1 binding to Ub-VS” value (native USP1) is reported as “did inhibit USP1 binding to Ub-VS in the same reaction in a dose-dependent manner” and the IC50 (USP1/UAF1 complex; 4 hour preincubation, AMC-Ub in vitro enzyme assay, read-out: IC50) is reported as 134 nM. The “inhibition of DUB activity (fluorescence) with pretreatment time” value (USP1/UAF1 complex; single dose 1 uM, variable time periods, FIG. 5A) was “serial increase in inhibition of DUB activity”, the “DUB activity with increasing dose” value (USP1/UAF1 complex; treatment for 2 h, 0.5 to 2 μM, FIG. 5B) was “dose-dependent decrease in DUB activity” and the IC50 (USP1/UAF1 complex; ubiquitin-AMC substrate, FIG. 5C, read-out: IC50 of C527 for the USP1/UAF1 complex) was 880 ± 30 nM. The cell proliferation (HeLa cells) was “inhibited cell proliferation”.

From US10653676B2 (Dana-Farber Cancer Institute, Inc., priority 2010, dated 2020)
